Results: patent US20070077642A1, “Steroid receptor modulation of gene expression” (priority 2002, published 2007)
Read-outs that look alike come from different tables or passages of the source.

Columns and labels:
[1] = system: alcA promoter of A. nidulans; conditions: pRM alcA, induction with ethanol
Procedure: To test the different inducer concentrations the strains were harvested by filtration and aliquots were transferred to fresh media containing the different inducer concentrations and additionally grown for 8 hours. At the end mycelium was harvested by filtration and frozen in liquid nitrogen. For time curve experiments the strains were harvested and additionally grown for 24 hours and after 2, 4, 6, 8 and 24 hours samples were taken and frozen in liquid nitrogen. […] An equal amount of fungal cell mass has been transferred to fresh medium and aliquots have been subjected to induction by the agonists. After sampling at desired time points the wet cell pellet has been processed as described.
NaPO4 buffer and glasbeads (0.75-1.0 mm) were added to the frozen mycelia and cells were destroyed by the use of the Hybaid RiboLyser. Cell debris was separated by centrifugation and the supernatant was used for enzyme assays Protein concentration was determined using the BCA assay of Pierce and the specific β-galactosidase activity was determined by the use of the protocol of Invitrogen.
β-gal activity in each pERE constructs were assayed after induction with 1 nM DES. The alcA expression was also assayed for comparison.

A. nidulans = assay: Growth test on plates at different ligand concentrations; format: cell-based, Aspergillus nidulans
Procedure: Induction of estrogen receptor expression via the addition of […], 100 nM, and 1 μM of DES inducer to media plates harboring the Xgal substrate for LacZ in the transformed strain: A. nidulans argB2, riboA1, pyrG 89, pyroA4. FIG. 6. […] Activation of the reporter construct at 1 nM DES was shown in the transformed fungi.

Structure (SMILES)	Inducibility ([1]; 24 h level over time 0 level)	β-gal activity ([1]; time 2 hours)	β-gal activity ([1]; time 4 hours)	β-gal activity ([1]; time 6 hours)	β-gal activity ([1]; time 8 hours)	β-gal activity ([1]; time 24 hours)	growth of strains transformed with reporter constructs (A. nidulans; strains transformed with reporter constructs, 100 nM DES)	growth of strains transformed with the hER (A. nidulans; strains transformed with the hER, 1 nM DES)	effect on growth of a wild type strain (A. nidulans; wild type strain, DES concentrations up to 20 μM)
CCO [ethanol]	16.23	506.66 units per mg protein	714.43 units per mg protein	1327.44 units per mg protein	1431.02 units per mg protein	6082.59 units per mg protein			
CC/C(=C(/CC)c1ccc(O)cc1)c1ccc(O)cc1 [DES, diethylstilbestrol]							strong growth inhibition	Growth inhibition	do not affect the growth
